{
  "source": "patent US4388311A",
  "about": "“Method for the induction of menses” (G. D. Searle & Co., priority 1982, dated 1983)",
  "key": {"pregnancy in rats [1]": {"system": "pregnancy in rats", "assay": "Pregnancy termination in rats, compounds administered intragastrically for four days (Table 1)", "type": "in vivo, rat", "conditions": "for Serum Progesterone ng/ml + S.E. / Serum Progesterone (Percent Control): serum day 11, 24 hours after initial injection", "method": "(§1) The following tables list the results for a compound of Formula IV as compared with a control of previously known 2α-cyano-17β-hydroxy-3-oxo-4,4,17α-trimethylandrost-5-end(Cyanoketone) for termination of pregnancy.\n^1 Compounds were administered intragastrically once daily on days 10\nthrough 13 of pregnancy in a vehicle consisting of PEG400, propylene\nglycol and 100 percent ethanol (50:40:10, v:v:v). Serum for progesterone\ndetermination was drawn on day 11 of pregnancy, 24 hours after the initia\ninjection of compound. The animals were autopsied on day 14 of pregnancy."}, "pregnancy in rats [2]": {"system": "pregnancy in rats", "assay": "Termination of pregnancy in rats, compounds administered subcutaneously (Table 2)", "type": "in vivo, rat", "conditions": "for Serum Progesterone (Percent Control) / Serum Progesterone ng/ml + S.E.: serum day 11, 24 hours after initial injection", "method": "as §1\n^1 Compounds given subcutaneously in corn oil vehicle once daily on\ndays 10 through 13 of pregnancy. Serum for progesterone determination was\ndrawn on day 11 of pregnancy, 24 hours after the initial injection of\ncompound. The animals were autopsied on day 14 of pregnancy.\n^2 Serum progesterone values determined by RIA at Interlab Associates"}, "[3]": {"conditions": "1 mg/kg/day intragastrically once daily days 10-13 of pregnancy, autopsy day 14"}, "[4]": {"conditions": "2 mg/kg/day intragastrically days 10-13 of pregnancy"}, "[5]": {"conditions": "2 mg/kg/day intragastrically once daily days 10-13 of pregnancy, autopsy day 14"}, "[6]": {"conditions": "4 mg/kg/day intragastrically days 10-13 of pregnancy, 4 mg/kg/day"}, "[7]": {"conditions": "4 mg/kg/day intragastrically once daily days 10-13 of pregnancy, autopsy day 14, 4 mg/kg/day"}, "[8]": {"conditions": "8 mg/kg/day intragastrically days 10-13 of pregnancy"}, "[9]": {"conditions": "8 mg/kg/day intragastrically once daily days 10-13 of pregnancy, autopsy day 14"}, "[10]": {"conditions": "16 mg/kg/day intragastrically days 10-13 of pregnancy"}, "[11]": {"conditions": "16 mg/kg/day intragastrically once daily days 10-13 of pregnancy, autopsy day 14"}, "[12]": {"conditions": "32 mg/kg/day intragastrically days 10-13 of pregnancy"}, "[13]": {"conditions": "32 mg/kg/day intragastrically once daily days 10-13 of pregnancy, autopsy day 14"}, "[14]": {"conditions": "64 mg/kg/day intragastrically days 10-13 of pregnancy"}, "[15]": {"conditions": "64 mg/kg/day intragastrically once daily days 10-13 of pregnancy, autopsy day 14"}, "[16]": {"conditions": "128 mg/kg/day intragastrically days 10-13 of pregnancy"}, "[17]": {"conditions": "128 mg/kg/day intragastrically once daily days 10-13 of pregnancy, autopsy day 14"}, "[18]": {"conditions": "1 mg/kg/day subcutaneously days 10-13 of pregnancy"}, "[19]": {"conditions": "1 mg/kg/day subcutaneously in corn oil once daily days 10-13 of pregnancy, autopsy day 14"}, "[20]": {"conditions": "2 mg/kg/day subcutaneously days 10-13 of pregnancy"}},
  "note": "Where “and” joins values, the source holds several entries; their conditions need not be identical. Equal values may be shown once.",
  "data": [
    {"compound": "CC1(C)C(=O)[C@H](C#N)C[C@@]2(C)C1=CC[C@@H]1[C@@H]2CC[C@@]2(C)[C@H]1CC[C@]2(C)O", "note": "[Cyanoketone, 2α-cyano-17β-hydroxy-3-oxo-4,4,17α-trimethylandrost-5-end]", "values": [
      {"measurement": "Serum Progesterone ng/ml + S.E.", "setting": "pregnancy in rats [1]; 1 mg/kg/day intragastrically days 10-13 of pregnancy", "result": "47.3 + 3.5 ng/ml"},
      {"measurement": "Adrenal Wt. mg + SE", "setting": "pregnancy in rats [1]; [3]", "result": "74.9 + 4.1 mg"},
      {"measurement": "Fetal Viability: Normal Fetuses/Implantation Sites", "setting": "pregnancy in rats [1]; [3]", "result": "49/54"},
      {"measurement": "Fetal Viability: Normal Fetuses/Implantation Sites (Percent)", "setting": "pregnancy in rats [1]; [3]", "result": 91, "unit": "%"},
      {"measurement": "Number of Rats Pregnant/Number of Rats Treated", "setting": "pregnancy in rats [1]; [3]", "result": "5/5"},
      {"measurement": "Number of Rats Pregnant/Number of Rats Treated (Percent)", "setting": "pregnancy in rats [1]; [3]", "result": 100, "unit": "%"},
      {"measurement": "Serum Progesterone (Percent Control)", "setting": "pregnancy in rats [1]; [4]", "result": 111, "unit": "Percent Control"},
      {"measurement": "Serum Progesterone ng/ml + S.E.", "setting": "pregnancy in rats [1]; [4]", "result": "52.5 + 3.7 ng/ml"},
      {"measurement": "Adrenal Wt. mg + SE", "setting": "pregnancy in rats [1]; [5]", "result": "77.1 + 5.3 mg"},
      {"measurement": "Fetal Viability: Normal Fetuses/Implantation Sites", "setting": "pregnancy in rats [1]; [5]", "result": "61/84"},
      {"measurement": "Fetal Viability: Normal Fetuses/Implantation Sites (Percent)", "setting": "pregnancy in rats [1]; [5]", "result": 73, "unit": "%"},
      {"measurement": "Number of Rats Pregnant/Number of Rats Treated", "setting": "pregnancy in rats [1]; [5]", "result": "6/7"},
      {"measurement": "Number of Rats Pregnant/Number of Rats Treated (Percent)", "setting": "pregnancy in rats [1]; [5]", "result": 86, "unit": "%"},
      {"measurement": "Serum Progesterone (Percent Control)", "setting": "pregnancy in rats [1]; [6]", "result": "75 Percent Control and 72 Percent Control"},
      {"measurement": "Serum Progesterone ng/ml + S.E.", "setting": "pregnancy in rats [1]; [6]", "result": "35.5 + 6.2 ng/ml and 33.8 + 3.8 ng/ml"},
      {"measurement": "Adrenal Wt. mg + SE", "setting": "pregnancy in rats [1]; [7]", "result": "75.0 + 3.5 mg and 76.9 + 3.7 mg"},
      {"measurement": "Fetal Viability: Normal Fetuses/Implantation Sites", "setting": "pregnancy in rats [1]; [7]", "result": "0/92 and 44/97"},
      {"measurement": "Number of Rats Pregnant/Number of Rats Treated", "setting": "pregnancy in rats [1]; [7]", "result": "1/8 and 5/8"},
      {"measurement": "Serum Progesterone (Percent Control)", "setting": "pregnancy in rats [1]; [8]", "result": 64, "unit": "Percent Control"},
      {"measurement": "Serum Progesterone ng/ml + S.E.", "setting": "pregnancy in rats [1]; [8]", "result": "30.2 + 3.8 ng/ml"},
      {"measurement": "Adrenal Wt. mg + SE", "setting": "pregnancy in rats [1]; [9]", "result": "65.7 + 2.5 mg"},
      {"measurement": "Fetal Viability: Normal Fetuses/Implantation Sites", "setting": "pregnancy in rats [1]; [9]", "result": "13/110"},
      {"measurement": "Fetal Viability: Normal Fetuses/Implantation Sites (Percent)", "setting": "pregnancy in rats [1]; [9]", "result": 12, "unit": "%"},
      {"measurement": "Number of Rats Pregnant/Number of Rats Treated", "setting": "pregnancy in rats [1]; [9]", "result": "3/10"},
      {"measurement": "Number of Rats Pregnant/Number of Rats Treated (Percent)", "setting": "pregnancy in rats [1]; [9]", "result": 30, "unit": "%"},
      {"measurement": "Serum Progesterone (Percent Control)", "setting": "pregnancy in rats [1]; [10]", "result": 88, "unit": "Percent Control"},
      {"measurement": "Serum Progesterone ng/ml + S.E.", "setting": "pregnancy in rats [1]; [10]", "result": "41.4 + 7.1 ng/ml"},
      {"measurement": "Adrenal Wt. mg + SE", "setting": "pregnancy in rats [1]; [11]", "result": "74.5 + 3.1 mg"},
      {"measurement": "Fetal Viability: Normal Fetuses/Implantation Sites", "setting": "pregnancy in rats [1]; [11]", "result": "25/103"},
      {"measurement": "Fetal Viability: Normal Fetuses/Implantation Sites (Percent)", "setting": "pregnancy in rats [1]; [11]", "result": 24, "unit": "%"},
      {"measurement": "Number of Rats Pregnant/Number of Rats Treated", "setting": "pregnancy in rats [1]; [11]", "result": "4/10"},
      {"measurement": "Number of Rats Pregnant/Number of Rats Treated (Percent)", "setting": "pregnancy in rats [1]; [11]", "result": 40, "unit": "%"},
      {"measurement": "Serum Progesterone (Percent Control)", "setting": "pregnancy in rats [1]; [12]", "result": 67, "unit": "Percent Control"},
      {"measurement": "Serum Progesterone ng/ml + S.E.", "setting": "pregnancy in rats [1]; [12]", "result": "31.5 + 6.7 ng/ml"},
      {"measurement": "Adrenal Wt. mg + SE", "setting": "pregnancy in rats [1]; [13]", "result": "66.4 + 3.3 mg"},
      {"measurement": "Fetal Viability: Normal Fetuses/Implantation Sites", "setting": "pregnancy in rats [1]; [13]", "result": "19/101"},
      {"measurement": "Fetal Viability: Normal Fetuses/Implantation Sites (Percent)", "setting": "pregnancy in rats [1]; [13]", "result": 19, "unit": "%"},
      {"measurement": "Number of Rats Pregnant/Number of Rats Treated", "setting": "pregnancy in rats [1]; [13]", "result": "2/9"},
      {"measurement": "Number of Rats Pregnant/Number of Rats Treated (Percent)", "setting": "pregnancy in rats [1]; [13]", "result": 22, "unit": "%"},
      {"measurement": "Serum Progesterone (Percent Control)", "setting": "pregnancy in rats [1]; [14]", "result": 40, "unit": "Percent Control"},
      {"measurement": "Serum Progesterone ng/ml + S.E.", "setting": "pregnancy in rats [1]; [14]", "result": "19.0 + 3.7 ng/ml"},
      {"measurement": "Adrenal Wt. mg + SE", "setting": "pregnancy in rats [1]; [15]", "result": "83.5 + 4.8 mg"},
      {"measurement": "Fetal Viability: Normal Fetuses/Implantation Sites", "setting": "pregnancy in rats [1]; [15]", "result": "24/128"},
      {"measurement": "Fetal Viability: Normal Fetuses/Implantation Sites (Percent)", "setting": "pregnancy in rats [1]; [15]", "result": 19, "unit": "%"},
      {"measurement": "Number of Rats Pregnant/Number of Rats Treated", "setting": "pregnancy in rats [1]; [15]", "result": "2/11"},
      {"measurement": "Number of Rats Pregnant/Number of Rats Treated (Percent)", "setting": "pregnancy in rats [1]; [15]", "result": 18, "unit": "%"},
      {"measurement": "Serum Progesterone (Percent Control)", "setting": "pregnancy in rats [1]; [16]", "result": 94, "unit": "Percent Control"},
      {"measurement": "Serum Progesterone ng/ml + S.E.", "setting": "pregnancy in rats [1]; [16]", "result": "44.3 + 5.3 ng/ml"},
      {"measurement": "Adrenal Wt. mg + SE", "setting": "pregnancy in rats [1]; [17]", "result": "72.0 + 2.5 mg"},
      {"measurement": "Fetal Viability: Normal Fetuses/Implantation Sites", "setting": "pregnancy in rats [1]; [17]", "result": "85/99"},
      {"measurement": "Fetal Viability: Normal Fetuses/Implantation Sites (Percent)", "setting": "pregnancy in rats [1]; [17]", "result": 85, "unit": "%"},
      {"measurement": "Number of Rats Pregnant/Number of Rats Treated", "setting": "pregnancy in rats [1]; [17]", "result": "8/9"},
      {"measurement": "Number of Rats Pregnant/Number of Rats Treated (Percent)", "setting": "pregnancy in rats [1]; [17]", "result": 89, "unit": "%"},
      {"measurement": "Serum Progesterone (Percent Control)", "setting": "pregnancy in rats [2]; [18]", "result": 124, "unit": "Percent Control"},
      {"measurement": "Serum Progesterone ng/ml + S.E.", "setting": "pregnancy in rats [2]; [18]", "result": "54.1 + 2.6 ng/ml"},
      {"measurement": "Adrenal Wt. mg + SE", "setting": "pregnancy in rats [2]; [19]", "result": "83.4 + 4.0 mg"},
      {"measurement": "Fetal Viability: Normal Fetuses/Implantation Sites", "setting": "pregnancy in rats [2]; [19]", "result": "80/82"},
      {"measurement": "Fetal Viability: Normal Fetuses/Implantation Sites (Percent)", "setting": "pregnancy in rats [2]; [19]", "result": 98, "unit": "%"},
      {"measurement": "Number of Rats Pregnant/Number of Rats Treated", "setting": "pregnancy in rats [2]; [19]", "result": "7/7"},
      {"measurement": "Number of Rats Pregnant/Number of Rats Treated (Percent)", "setting": "pregnancy in rats [2]; [19]", "result": 100, "unit": "%"},
      {"measurement": "Serum Progesterone (Percent Control)", "setting": "pregnancy in rats [2]; [20]", "result": 94, "unit": "Percent Control"},
      {"measurement": "Serum Progesterone ng/ml + S.E.", "setting": "pregnancy in rats [2]; [20]", "result": "40.8 + 2.2 ng/ml"}
    ]}
  ]
}
